In US20060148858A1, “1, 2-Azole derivatives with hypoglycemic and hypolipidemic activity” (priority 2002, published 2006):
Where two headings read alike, the source gives them in different places.

What was measured:
PPARγ-RXRα heterodimer = target: T1, PPARγ-RXRα heterodimer (Homo sapiens, UniProt P37231); assay: PPARγ-RXRα heterodimer ligand activity, luciferase reporter in PPARγ:RXRα:4ERPP/CHO-K1 cells (Test Example 3); assay type: cell-based; settings: 18-48 hours, concentration for 50% of the maximum fold induction
T1 construct: expressed in transfected cells; host or cells: CHO-K1
T1 sequence (P37231 1-477 isoform P37231-2): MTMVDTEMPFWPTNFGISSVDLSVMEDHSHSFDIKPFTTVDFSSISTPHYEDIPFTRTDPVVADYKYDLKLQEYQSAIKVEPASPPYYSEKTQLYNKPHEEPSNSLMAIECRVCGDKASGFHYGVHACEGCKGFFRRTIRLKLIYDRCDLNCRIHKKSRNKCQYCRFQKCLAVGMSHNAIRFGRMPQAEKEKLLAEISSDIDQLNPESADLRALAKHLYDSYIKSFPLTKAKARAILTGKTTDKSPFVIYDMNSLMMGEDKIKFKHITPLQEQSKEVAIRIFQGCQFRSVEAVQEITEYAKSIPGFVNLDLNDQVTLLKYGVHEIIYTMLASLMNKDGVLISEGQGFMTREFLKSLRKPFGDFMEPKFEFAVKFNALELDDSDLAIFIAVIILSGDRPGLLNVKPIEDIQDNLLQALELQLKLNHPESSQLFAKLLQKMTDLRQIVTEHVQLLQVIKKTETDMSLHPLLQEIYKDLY
T1 sequence (P19793 1-462 partner): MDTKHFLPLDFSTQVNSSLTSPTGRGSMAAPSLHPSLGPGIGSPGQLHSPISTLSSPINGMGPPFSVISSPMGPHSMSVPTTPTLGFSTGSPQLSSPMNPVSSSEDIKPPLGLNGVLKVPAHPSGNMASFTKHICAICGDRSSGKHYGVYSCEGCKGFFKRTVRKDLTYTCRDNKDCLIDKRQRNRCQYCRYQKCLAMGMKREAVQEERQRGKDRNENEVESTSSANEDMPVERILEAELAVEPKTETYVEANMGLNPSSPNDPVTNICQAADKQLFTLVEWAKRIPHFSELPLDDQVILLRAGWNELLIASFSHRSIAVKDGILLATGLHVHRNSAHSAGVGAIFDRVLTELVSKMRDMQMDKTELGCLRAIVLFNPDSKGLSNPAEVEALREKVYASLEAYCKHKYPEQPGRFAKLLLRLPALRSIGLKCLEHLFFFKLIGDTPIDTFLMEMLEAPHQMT
In short: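 Stable CHO-K1 line co-expressing hPPARγ/RXR with 4ERPP-TK luciferase reporter, 2×10^4 cells per well, treated 18-48 h at 37° C. in HAM F12 with 0.1% fatty acid-free BSA. Luciferase fold induction versus untreated taken as 1; EC50 is concentration giving 50% of maximal fold induction.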

KKAY mice [1] = assay: Plasma anti-arteriosclerosis index-enhancing action in mice (Test Example 2); assay type: in vivo; settings: Mus musculus, po, 96 h, 0.005% in powdery diet, four days, percent increase of (HDL cholesterol/total cholesterol)x100, non-treatment group taken as 100%
Method: Test compounds were mixed in a powdery diet (CE-2, Japan Clea) at the concentration of 0.005%, and freely given to KKAY mice (9 to 12 weeks old, 5 mice per group), a model of obese and non-insulin dependent diabetes (type 2 diabetes), for four days. During this period, water was given freely. Blood was sampled from orbital venous plexus and components in plasma separated from blood were determined. Total cholesterol levels were determined by using L type Wako Cholesterol (Wako Pure Chemical Industries, Ltd.). Precipitation reagent for HDL cholesterol (Wako Pure Chemical Industries, Ltd.) was added to a part of the plasma to precipitate non-HDL lipoprotein, and cholesterol (HDL cholesterol) in the resulting supernatant was determined. The plasma anti-arteriosclerosis index [(HDL cholesterol/total cholesterol)×100] was calculated by using these cholesterol levels.
In the Table, “Plasma anti-arteriosclerosis index-enhancing action (%)” represents the percent increase (%) of plasma anti-arteriosclerosis index in the treatment group, when the plasma anti-arteriosclerosis index in the non-treatment group is taken as 100%.

KKAY mice [2] = assay: Hypoglycemic and hypolipidemic actions in mice (Test Example 1); assay type: in vivo; settings: Mus musculus, po, 96 h, 0.005% in powdery diet, four days, non-treated group taken as 100%
In short: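 KKAY mice (9 to 12 weeks old, 5 per group) were fed diet containing 0.005% test compound ad libitum for four days. Plasma glucose and triglycerides from orbital venous blood were measured enzymatically, reported as % decrease relative to untreated group (100%).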

[3] = rate of decrease in blood glucose level, read-out: Hypoglycemic action (%)
[4] = rate of decrease in blood triglyceride level, read-out: Hypolipidemic action (%)

Row | SMILES | EC50 (PPARγ-RXRα heterodimer) [µM] | melting point [°C] | change in vivo at 0.005 % in diet (KKAY mice [1]) [%] | inhibition in vivo at 0.005 % in diet (KKAY mice [2]; [3]) [%] | inhibition in vivo at 0.005 % in diet (KKAY mice [2]; [4]) [%]
1 | CCOc1nn(-c2ccc(C(F)(F)F)cn2)cc1CCCOc1cccc(OC(C)(C)C(=O)O)c1 [Example 29, 2-[3-(3-{3-ethoxy-1-[5-(trifluoromethyl)-2-pyridyl]-1H-pyrazol-4-yl}propoxy)phenoxy]-2-methylpropionic acid] | 0.16 | 120 to 121 | 23 | 46 | 65
2 | CCCc1nn(-c2ccc(C(F)(F)F)cn2)cc1CCCOc1cccc(OC(C)(C)C(=O)O)c1 [Example 41, 2-methyl-2-[3-(3-{3-propyl-1-[5-(trifluoromethyl)-2-pyridyl]-1H-pyrazol-4-yl}propoxy)phenoxy]propionic acid] | 0.077 | 99 to 100 | 12 | 25 | 48
3 | CCCc1nn(-c2ccc(C(F)(F)F)cn2)cc1CCCOc1c(CC(=O)O)cccc1OC [Example 259, [3-methoxy-2-(3-{3-propyl-1-[5-(trifluoromethyl)-2-pyridyl]-1H-pyrazol-4-yl}propoxy)phenyl]acetic acid] | 0.076 | 122 to 123 | 25 | 34 | 70

The next compounds have a lower EC50 (PPARγ-RXRα heterodimer) than those just listed; values first:

Row | EC50 (PPARγ-RXRα heterodimer) [µM] | melting point [°C] | SMILES | change in vivo at 0.005 % in diet (KKAY mice [1]) [%] | inhibition in vivo at 0.005 % in diet (KKAY mice [2]; [3]) [%] | inhibition in vivo at 0.005 % in diet (KKAY mice [2]; [4]) [%]
4 | 0.035 | 101 to 102 | CC(C)c1nn(-c2ccc(C(F)(F)F)cn2)cc1CCCOc1cccc(OC(C)(C)C(=O)O)c1 [Example 28, 2-[3-{3-(3-isopropyl-1-[5-(trifluoromethyl)-2-pyridyl]-1H-pyrazol-4-yl}propoxy)phenoxy]-2-methylpropionic acid] | 18 | 42 | 56
5 | 0.035 | 159 to 160 | Cc1cccc(CC(=O)O)c1OCCCc1cn(-c2ccc(C(F)(F)F)cn2)nc1C(C)C [Example 315, [2-(3-{3-isopropyl-1-[5-(trifluoromethyl)-2-pyridinyl]-1H-pyrazol-4-yl}propoxy)-3-methylphenyl]acetic acid] | 11 | 53 | 70
